Publication PMC11676910, “Manganese(II) Complexes with Non-Steroidal Anti-Inflammatory Drugs: Structure and Biological Activity” (International Journal of Molecular Sciences, 2024)
Like-named read-outs stand apart in the source and are kept apart here.

Columns and labels:
[1] = target: bovine serum albumin (BSA) (Bos taurus, UniProt P02769); experiment: BSA tryptophan fluorescence quenching; conditions: for BSA binding constant Κ(BSA): Scatchard equation, BSA 3 μM; for relative BSA fluorescence emission intensity (I/Io, %) remaining: λem,max = 345 nm, lowest value reached, % of the initial BSA fluorescence
[2] = ABTS radical scavenging assay; conditions: compound 0.1 mM in DMSO; absorbance at 734 nm 1 min after mixing
[3] = tested on: EB–DNA adduct (CT DNA); experiment: EB displacement from EB–DNA adduct by fluorescence emission spectroscopy; type: binding, calf; conditions: for Stern–Volmer constant KSV (EB–DNA) / EB–DNA fluorescence quenching ΔI/Io (%): [EB] = 40 μM, [DNA] = 45 μM; for EB–DNA fluorescence quenching ΔI/Io (%): λexcitation 540 nm; for relative EB–DNA fluorescence intensity (I/Io, %) remaining: λemission = 592 nm, lowest value reached, % of the initial EB–DNA fluorescence; for quenching constant kq of the EB–DNA fluorescence: τo = 23 ns
[4] = target: human serum albumin (HSA) (Homo sapiens, UniProt P02768); conditions: for HSA binding constant Κ(HSA): Scatchard equation, HSA 3 μM; for relative HSA fluorescence emission intensity (I/Io %) remaining: λem,max = 340 nm, lowest value reached, % of the initial HSA fluorescence
[5] = Solubility of the complexes; type: physicochemical
[6] = tested on: CT DNA; experiment: CT DNA binding by UV-vis spectroscopy titration; design: species or system calf; conditions: for ΔA/A0 (%) hyper-/hypo-chromism of UV band / Δλ (nm) shift of λmax: on addition of CT DNA
[7] = design: concentration or dose not given beside the values; conditions: free NSAID; cited from earlier work
[8] = tested on: EB–DNA adduct (CT DNA); conditions: cited from earlier work
[9] = tested on: CT DNA; conditions: cited from earlier work; for ΔA/A0 (%) hyper-/hypo-chromism of UV band: first band listed in the cell
[10] = first band listed in the cell, + hyperchromism, − hypochromism
[11] = first band listed in the cell, + red shift, − blue shift
[12] = second band listed in the cell, <−50 = intense hypochromism
[13] = second band listed in the cell, elim = elimination

bovine serum albumin (BSA), sequence (P02769 25-607): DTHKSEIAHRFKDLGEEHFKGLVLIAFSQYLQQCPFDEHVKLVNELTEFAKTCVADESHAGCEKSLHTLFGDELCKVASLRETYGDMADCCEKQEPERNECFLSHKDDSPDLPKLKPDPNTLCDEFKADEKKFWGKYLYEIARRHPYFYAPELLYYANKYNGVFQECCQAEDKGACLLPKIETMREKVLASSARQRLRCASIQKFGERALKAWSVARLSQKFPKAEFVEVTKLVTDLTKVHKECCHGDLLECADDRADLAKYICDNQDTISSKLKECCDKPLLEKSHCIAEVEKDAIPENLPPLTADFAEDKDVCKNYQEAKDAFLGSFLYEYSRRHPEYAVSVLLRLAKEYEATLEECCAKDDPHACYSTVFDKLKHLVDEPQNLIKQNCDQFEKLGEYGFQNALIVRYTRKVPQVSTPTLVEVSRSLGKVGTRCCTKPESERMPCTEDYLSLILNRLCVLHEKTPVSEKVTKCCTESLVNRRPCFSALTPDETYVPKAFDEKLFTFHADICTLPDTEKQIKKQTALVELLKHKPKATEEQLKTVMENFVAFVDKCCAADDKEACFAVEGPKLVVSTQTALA
human serum albumin (HSA), sequence (P02768 25-609): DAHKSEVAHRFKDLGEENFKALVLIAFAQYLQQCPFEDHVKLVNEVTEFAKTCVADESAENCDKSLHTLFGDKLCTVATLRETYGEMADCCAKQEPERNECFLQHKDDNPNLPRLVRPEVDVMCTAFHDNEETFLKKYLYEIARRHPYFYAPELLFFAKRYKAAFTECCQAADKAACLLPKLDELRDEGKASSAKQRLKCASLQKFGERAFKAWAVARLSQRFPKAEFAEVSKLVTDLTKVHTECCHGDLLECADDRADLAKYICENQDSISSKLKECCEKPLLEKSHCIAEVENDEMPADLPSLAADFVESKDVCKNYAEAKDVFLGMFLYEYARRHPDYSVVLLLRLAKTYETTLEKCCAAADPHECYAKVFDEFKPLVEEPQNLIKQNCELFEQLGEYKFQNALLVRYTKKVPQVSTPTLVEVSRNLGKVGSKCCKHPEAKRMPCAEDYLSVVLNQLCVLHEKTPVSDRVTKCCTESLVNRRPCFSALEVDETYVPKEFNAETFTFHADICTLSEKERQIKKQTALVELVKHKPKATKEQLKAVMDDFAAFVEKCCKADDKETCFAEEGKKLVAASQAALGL

| Compound | BSA binding constant Κ(BSA) [1] | relative BSA fluorescence emission intensity (I/Io, %) remaining [1] [%] | % ABTS radical scavenging activity (ABTS%) [2] [%] | Stern–Volmer constant KSV (EB–DNA) [3] | EB–DNA fluorescence quenching ΔI/Io (%) [3] [%] | relative EB–DNA fluorescence intensity (I/Io, %) remaining [3] [%] | quenching constant kq of the EB–DNA fluorescence [3] | HSA binding constant Κ(HSA) [4] | relative HSA fluorescence emission intensity (I/Io %) remaining [4] [%] | solubility [5] | ΔA/A0 (%) hyper-/hypo-chromism of UV band [6, 10] | Δλ (nm) shift of λmax [6, 11] | BSA quenching constant kq(BSA) [1] | ΔA/A0 (%) hyper-/hypo-chromism of UV band [6, 12] | Δλ (nm) shift of λmax [6, 13] | also measured |
| --- | --- | --- | --- | --- | --- | --- | --- | --- | --- | --- | --- | --- | --- | --- | --- | --- |
| Cc1ccc(Cl)c(Nc2ccccc2C(=O)[O-])c1Cl.Cc1ccc(Cl)c(Nc2ccccc2C(=O)[O-])c1Cl.O.O.[Mn+2].c1ccncc1.c1ccncc1.c1ccncc1.c1ccncc1 [Complex 1, [Μn(meclf–O)2(py)2(H2O)2]∙2py] | 9.58 (±0.07) × 10^5 M^–1 | 11.8 | 39.18 ± 3.27 | 1.15 (±0.17) × 10^5 M^–1 | 53.0 | 47.0 | 4.99 (±0.15) × 10^12 M^–1s^–1 | 8.83 (±0.24) × 10^5 M^–1 | 21.8 | soluble in DMSO and DMF | +10% | −2 nm | – | – | – | – |
| CO.CO.Cc1ccc(Cl)c(Nc2ccccc2C(=O)[O-])c1Cl.Cc1ccc(Cl)c(Nc2ccccc2C(=O)[O-])c1Cl.[Mn+2].c1cnc2c(c1)ccc1cccnc12 [Complex 3, [Μn(meclf–O)2(phen)(MeOH)2]] | 2.71 (±0.16) × 10^6 M^–1 | 8.0 | 18.66 ± 0.71 | 1.18 (±0.32) × 10^6 M^–1 | 79.6 | 20.4 | 5.15 (±0.14) × 10^13 M^–1s^–1 | 8.73 (±0.06) × 10^5 M^–1 | 17.0 | soluble in DMSO, and DMF | −6% | +2 nm | – | – | – | – |
| CO.CO.Cc1ccc(Cl)c(Nc2ccccc2C(=O)[O-])c1Cl.Cc1ccc(Cl)c(Nc2ccccc2C(=O)[O-])c1Cl.[Mn+2].c1ccc(-c2ccccn2)nc1 [Complex 4, [Mn(meclf–O)2(bipy)(MeOH)2]] | 9.61 (±0.06) × 10^5 M^–1 | – | 98.69 ± 0.06 | 1.54 (±0.31) × 10^5 M^–1 | 44.8 | – | 6.69 (±0.13) × 10^12 M^–1s^–1 | 9.38 (±0.29) × 10^5 M^–1 | – | – | +15% | – | 1.76 (±0.11) × 10^14 M^–1s^–1 | +9% | – | – |
| Cc1ccc2ccc3ccc(C)nc3c2n1.O=C([O-])c1ccccc1Nc1cccc(C(F)(F)F)c1.O=C([O-])c1ccccc1Nc1cccc(C(F)(F)F)c1.[Mn+2] [Complex 7, [Μn(fluf–O,O’)2(neoc)]] | 4.69 (±0.37) × 10^5 M^–1 | 10.8 | 29.70 ± 2.86 | 5.55(±0.12) × 10^5 M^–1 | 52.1 | 47.9 | 2.41 (±0.05) × 10^13 M^–1s^–1 | 8.33 (±0.04) × 10^5 M^–1 | 14.4 | soluble in DMSO | −6% | 0 nm | 4.62 (±0.11) × 10^13 M^–1s^–1 | – | – | DNA binding constant Kb ([6]; Wolfe–Shimer equation, buffer 150 mM NaCl, 15 mM trisodium citrate pH 7.0): 1.10 (±0.02) × 10^6 M^–1 |
| Cc1c(Cl)cccc1Nc1ccccc1C(=O)[O-].Cc1c(Cl)cccc1Nc1ccccc1C(=O)[O-].Cc1ccc2ccc3ccc(C)nc3c2n1.[Mn+2] [Complex 8, [Μn(tolf–O,O’)2(neoc)]] | 7.23 (±0.23) × 10^5 M^–1 | 4.4 | 99.63 ± 0.07 | 2.35 (±0.48) × 10^5 M^–1 | 50.0 | 50.0 | 1.02 (±0.03) × 10^13 M^–1s^–1 | 6.35 (±0.29) × 10^5 M^–1 | 7.4 | soluble in DMSO | +5% | +1 nm | 1.36 (±0.53) × 10^14 M^–1s^–1 | +2% | +2 nm | – |
| O=C(O)c1cc(-c2ccc(F)cc2F)ccc1O [Complex H2difl, diflunisal] | – | – | – | – | – | – | – | – | – | – | – | – | – | – | – | % ABTS radical scavenging activity (ABTS%) [7]: 76.58 ± 0.74%; EB–DNA fluorescence quenching ΔI/Io (%) [8]: 65.0%; Stern–Volmer constant KSV (EB–DNA) [8]: 8.59 (±0.35) × 10^5 M^–1; quenching constant kq of the EB–DNA fluorescence [8]: 3.73 (±0.15) × 10^13 M^–1s^–1; ΔA/A0 (%) hyper-/hypo-chromism of UV band [9]: +15% |
| CC[n+]1c(-c2ccccc2)c2cc(N)ccc2c2ccc(N)cc21.[Br-] [EB, 3,8–diamino–5–ethyl–6–phenyl–phenanthridinium bromide] | – | – | – | – | – | – | – | – | – | – | – | – | – | – | – | DNA binding constant Kb ([9]; classic intercalator): 1.23 (±0.07) × 10^5 M^−1 |
| O=C(O)Cc1ccccc1Nc1c(Cl)cccc1Cl [Na dicl, sodium diclofenac] | – | – | – | – | – | – | – | – | – | – | – | – | – | – | – | % ABTS radical scavenging activity (ABTS%) [7]: 76.35 ± 0.75%; EB–DNA fluorescence quenching ΔI/Io (%) [8]: 65.0%; Stern–Volmer constant KSV (EB–DNA) [8]: 2.47 (±0.06) × 10^5 M^–1; quenching constant kq of the EB–DNA fluorescence [8]: 1.07 (±0.03) × 10^13 M^–1s^–1; ΔA/A0 (%) hyper-/hypo-chromism of UV band [9]: −7.5% |
| Cc1c(C)c2c(c(C)c1O)CCC(C)(C(=O)O)O2 (stereo not shown) [Trolox, 6–Hydroxy–2,5,7,8–tetramethylchromane–2–carboxylic acid, reference compound] | – | – | 91.8 ± 0.17 | – | – | – | – | – | – | – | – | – | – | – | – | – |
| [Μn(Hdifl–O,O’)(Hdifl–O)(neoc)]·0.5MeOH [Complex 9] | 5.67 (±0.27) × 10^5 M^–1 | 24.8 | 25.80 ± 1.43 | 1.01 (±0.42) × 10^6 M^–1 | – | 29.4 | 4.39 (±0.10) × 10^13 M^–1s^–1 | 5.44 (±0.24) × 10^5 M^–1 | 24.9 | soluble in DMSO | +6% | 0 nm | 2.99 (±0.16) × 10^13 M^–1s^–1 | – | – | – |
| [Μn(dicl–O,O’)2(neoc)]∙0.25 H2O [Complex 5] | 6.32 (±0.32) × 10^5 M^–1 | 12.7 | 99.20 ± 0.06 | 7.37 (±0.05) × 10^5 M^–1 | 69.9 | 30.1 | 3.20 (±0.21) × 10^13 M^–1s^–1 | 3.09 (±0.21) × 10^5 M^–1 | 0.8 | soluble in DMSO | +8% | +2 nm | 3.46 (±0.16) × 10^13 M^–1s^–1 | +7% | −4 nm | – |
| [Μn(mef–O)2(py)2(H2O)(MeOH)]∙1.5py [Complex 2] | 1.03 (±0.16) × 10^6 M^–1 | 9.7 | 92.56 ± 0.74 | 2.30 (±0.53) × 10^5 M^–1 | – | 47.4 | 1.00 (±0.155) × 10^13 M^–1s^–1 | 1.92 (±0.10) × 10^6 M^–1 | 0.3 | soluble in DMSO and DMF | +7% | 0 nm | – | < −50% | elim | overall quenching of albumin fluorescence ([4]; % of the fluorescence intensity initially measured for albumin (HSA per Figure 11C)): 99.7% |
| [Μn(mef–O,O’)2(neoc)]∙1.5MeOH∙0.25 H2O [Complex 6] | 1.08 (±0.38) × 10^6 M^–1 | 5.9 | 98.69 ± 0.07 | 4.29 (±0.32) × 10^5 M^–1 | 60.6 | 39.4 | 1.86 (±0.18) × 10^13 M^–1s^–1 | 9.48 (±0.35) × 10^5 M^–1 | 5.6 | soluble in DMSO | +3% | 0 nm | 1.87 (±0.04) × 10^14 M^–1s^–1 | +2% | −2 nm | – |
